Structures are written as SMILES.

The subject of one assay is T1, TRPC3.
T1 construct: expressed in transfected cells
Nature of the assay: Microfluorometric single-cell [Ca2+]i analysis, fura-2-loaded HEK cells stably expressing TRPC3. Format: cell-based, human. The settings on record: 50 µM. The procedure: The microfluorometric single-cell [Ca^2+]i analysis was performed on an inverted epifluorescence microscope (Carl Zeiss, Jena, Germany) and calibrated as described. Cells were grown on 25 mm coverslips and loaded with 4 µM fura-2/AM (AAT Bioquest, Sunnyvale, CA, U.S.A.) in HBS containing 0.2% BSA for 30 min at 37 °C. After gently rinsing the coverslips with HBS, coverslips were mounted in a bath chamber and superfused with HBS containing 0.035% BSA.
Figure 2 Microfluorometric single-cell analysis of artemisinin-induced increases in [Ca^2+]i in fura-2-loaded HEK cells stably expressing TRPC3 (A), TRPC6 (B), or TRPC7 (C). […] Experiments were performed either in standard bath solution, containing 1 mM Ca^2+ (black lines and bars), or in a nominally Ca^2+-free HBS buffer, supplemented with 200 µM EGTA (grey lines and bars). Time courses of averaged responses (left), and statistical analysis of 6–11 independent imaging experiments with means and S.D. (right) are shown. Significant differences (p < 0.05, Student´s t-test with paired data: #, with unpaired data: *) are marked for the indicated comparisons; n.s.: difference is statistically not significant.

The test system of assay [1] is human protein kinase C (PKC) ε. Nature of the assay: Plasma membrane translocation of PKCε-YFP fusion protein. Format: cell-based. The following applies: 50 µM.
The subject of assay [2] is TRPC4, TRPC5, TRPA1, TRPM2, TRPM3, TRPM8, TRPV1, TRPV2, TRPV4, or TRPV4. Nature of the assay: Selectivity profiling, inhibition of activator responses in the TRP channel panel. Format: cell-based. The settings on record: 100 µM, subsequent stimulation with channel-specific activators. The procedure:
(§1) Human embryonic kidney 293 (HEK293) cells were stably transfected with expression plasmids that encode hTRPC3-YFP, hTRPC6-YFP, hTRPC7-YFP, mTRPC4ß-YFP, rTRPV1-CFP, rTRPV2-YFP, rTRPV3-YFP, mTRPV4-YFP, or hTRPM2 as previously described. Cell lines were cultured in Earle’s minimum essential medium (MEM; Sigma, Munich, Germany), supplemented with 10% fetal calf serum (Gibco Thermo Fisher Scientific, Darmstadt, Germany), 2 mM L-glutamine, and required concentrations of geneticin in a range of 0.4–1 mg/mL. A HEK293mTRPC5-YFP cell line was maintained and induced as described before. […] For electrophysiological and single cell [Ca^2+]i imaging experiments, PC12 cells were plated onto 25 mm poly-L-lysine-coated glass coverslips and measured 24–48 h after seeding. […]
(§2) The primary compound screen and the generation of concentration response curves in HEK293 cells or in PC12 cells were performed by using a custom-made fluorescence plate imager built into a robotic liquid handling station equipped with a 96-tip multichannel head (Freedom Evo 150, Tecan, Männedorf, Switzerland) as described previously. […] Plates were mounted on the imager, and fluorescence signals were recorded with a cooled Zyla 5.5 camera (Andor, Belfast, UK) through a 515 nm long pass filter. […] When inhibitory potencies were evaluated, a second pipetting step with the respective reference agonist was performed. […]

A further assay concerns T2, rTRPV1-CFP.
T2 construct: expressed in transfected cells
As to the kind of experiment: Selectivity profiling, fluo-4 [Ca2+]i response, TRPV1. The following applies: 100 µM. Format: cell-based, rat. As for the experimental part:
as §1, §2

A further assay relates to T3, mTRPC4ß-YFP.
T3 construct: expressed in transfected cells
Nature of the assay: Selectivity profiling, fluo-4 [Ca2+]i response, TRPC4. The following applies: 100 µM. Format: cell-based, mouse. As for the experimental part: as §1, §2

Another assay relates to T4, hTRPC6-YFP.
T4 construct: expressed in transfected cells
Nature of the assay: Fluo-4 Ca2+ influx assay in HEK293 cells stably expressing TRPC6. Format: cell-based, human. The settings on record: for effect on TRPC6: fluo-4 concentration response analysis.

The next assay has as its system mTRPM3α2. Nature of the assay: Selectivity profiling, fluo-4 [Ca2+]i response, TRPM3. Format: cell-based, mouse. The settings on record: 100 µM. As for the experimental part: as §1, §2
Another assay relates to T5, TRPM8.
T5 construct: expressed in transfected cells
Nature of the assay: Selectivity profiling, fluo-4 [Ca2+]i response, TRPM8. Format: cell-based. The settings on record: 100 µM. The procedure: The primary compound screen and the generation of concentration response curves in HEK293 cells or in PC12 cells were performed by using a custom-made fluorescence plate imager built into a robotic liquid handling station equipped with a 96-tip multichannel head (Freedom Evo 150, Tecan, Männedorf, Switzerland) as described previously. To this end, trypsinized cell suspensions were loaded with 4 µM fluo-4/AM (Invitrogen, Thermo Fisher Scientific, Waltham, MA, U.S.A.) in cell culture medium for 30 min at 37 °C. After brief centrifugation, cells were resuspended in HBS and dispensed into black pigmented, clear-bottom 384-well plates (Greiner µClear, Frickenhausen, Germany). Plates were mounted on the imager, and fluorescence signals were recorded with a cooled Zyla 5.5 camera (Andor, Belfast, UK) through a 515 nm long pass filter. The image acquisition was controlled by the µManager software (http://micro-manager.org), and excitation with a LED array (470 nm) was synchronized by the camera trigger output. […] When inhibitory potencies were evaluated, a second pipetting step with the respective reference agonist was performed. Fluorescence intensities were calculated from image stacks for each well with ImageJ (National Institutes of Health, Bethesda, MD, U.S.A.), corrected for background signals, and normalized to the initial intensities (F/F0). […]

For `C[C@@H]1CC[C@H]2[C@@H](C)C(=O)O[C@@H]3O[C@@]4(C)CC[C@@H]1[C@]32OO4` [artemisinin], the “[Ca2+]i signal in TRPC3-expressing cells in Ca2+-free bath” value with TRPC3 (nominally Ca2+-free HBS with 200 µM EGTA) was “abolished”. Further, in the assay on TRPC3 (standard bath 1 mM Ca2+), the “[Ca2+]i response in TRPC3-overexpressing HEK cells” value is on record as “confirmed the responses”. For the same molecule, the “plasma membrane translocation of PKCε-YFP” value in assay [1] is listed as “did not induce a discernible plasma membrane translocation”. Besides, the “inhibition of the investigated channels compared to the solvent control” value in assay [2] is listed as “did not observe a significant inhibition”. Further, in the assay on rTRPV1-CFP, the “[Ca2+]i response, TRPV1” value is “none of the cell lines responded”. The “[Ca2+]i response, TRPC4” value in the assay on mTRPC4ß-YFP is “none of the cell lines responded”. In addition, the “effect on TRPC6” value in the assay with hTRPC6-YFP is “marked preference to activate TRPC3, but not the closely related TRPC6 channel”; in the assay on hTRPC6-YFP (listed as Artemisinin), “rather inhibits TRPC6”. In the assay on hTRPC6-YFP (primary screen, 20 µM), the “signal in counterscreen with TRPC6-expressing cells” value is “no signals”. The “[Ca2+]i response, TRPM3” value in the assay with mTRPM3α2 is reported as “none of the cell lines responded”. Further, in the assay with TRPM8, the “[Ca2+]i response, TRPM8” value was “none of the cell lines responded”.
